Source: patent US20240245762A1, “METHODS AND PLATFORMS FOR PROMOTING ANTIGEN-SPECIFIC TOLERANCE IN THE TREATMENT OF TYPE 1 DIABETES AND GRAFT REJECTION AND COMPOSITIONS RELATING THERETO” (University of Maryland, College Park, priority 2021, published 2024)

Test system: Eα presentation in MHC-II
Assay: Immunohistochemistry of Eα presentation in MHC-II (Y-ae) around HEVs of LNs
Type: in vivo, mouse
Settings: three daily i.p. injections starting on the day of MP treatment
Text: Immunohistochemistry and histology. The following antibodies were used for immunohistochemistry: ERTR7 (clone sc-73355), CD11c (cloneHL3), Laminin alpha4 (clone 775830), laminin alpha 5 (polyclonal), Foxp3 (clone NRRF-30), Vα2 TCR (clone B20.1). For immunohistochemistry, LNs and spleens were frozen with OCT compound (Scigen Tissue-Plus, Gardena, CA). Frozen sections were cut at 6 μm, fixed with cold acetone, blocked with 5% goat or donkey serum (Jackson ImmunoResearch, West Grove, PA) and incubated with the indicated antibodies and DAPI. […] Images were acquired with a Nikon Eclipse 700 (Nikon, Melville, NY, USA) and analyzed with Volocity image analysis software (Perkin Elmer, Waltham, MA). The positive staining area percentage was quantified based on at least three independent experiments with 3 sections per LN and 3-5 fields/section.
Subsequently, we directly investigated the trafficking and presentation of antigen from MPs in […] LNs using Y-ae, a recently-developed antibody tool. […] At 2 days, Eα presentation localized with HEVs was detected in treated LNs (FIG. 12f), and increased by day 6 (FIG. 12g). […]

With CCCCCCCCc1ccc(CCC(N)(CO)CO)cc1 [FTY720] the “effect on Eα presentation after Eα MP or Eα/rapamycin MP treatment” value was “did not significantly affect Eα presentation”.
